Test results reported in patent US20250099420A1, “SMALL MOLECULE MODULATORS OF GPR139 COMPLEX” (University of Florida Research Foundation, Incorporated, priority 2022, published 2025).
Where two headings read alike, the source gives them in different places.

How the values were obtained:
GPR139 = target: T1, GPR139 (Homo sapiens, UniProt Q6DWJ6); assay: GPR139 Agonist titration / agonist counterscreen assay (calcium detection, HEK-GPR139 cells); type: cell-based; parameters: expressed in transfected cells; host or cells: HEK Aequorin cells, Maxcyte transient transfection; settings: GPR139 Agonist Activity; for Averaged Max % Response (±St. Dev.): activity relative to known control; for EC50: read-out: EC50
T1 sequence (Q6DWJ6 1-353): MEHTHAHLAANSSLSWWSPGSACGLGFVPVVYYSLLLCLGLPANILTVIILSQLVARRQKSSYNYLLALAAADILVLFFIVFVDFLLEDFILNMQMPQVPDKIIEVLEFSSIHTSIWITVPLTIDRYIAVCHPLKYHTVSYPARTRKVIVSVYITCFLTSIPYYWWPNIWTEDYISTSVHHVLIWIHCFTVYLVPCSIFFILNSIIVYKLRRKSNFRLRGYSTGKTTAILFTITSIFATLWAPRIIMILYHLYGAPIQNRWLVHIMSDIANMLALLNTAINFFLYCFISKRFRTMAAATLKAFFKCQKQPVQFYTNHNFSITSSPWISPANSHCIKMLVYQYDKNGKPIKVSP
Procedure: GPR activity was assessed using a calcium detection assay. […] Negative control samples were treated with DMSO. […] Intracellular calcium was measured using Calcium 5.

parental HEK cells = assay: HEK parental Agonist Counterscreen Assay (non-transfected cells); type: cell-based; settings: for Averaged Max % Response (±St. Dev.): activity relative to known control
From the text: The high control for the agonist counterscreen was Forskolin not acetylcholine.

[1] = values printed in E-notation without unit
[2] = Homo sapiens, HEK293, HEK Agonist Activity section of Table 4 (parental HEK counterscreen)
[3] = Homo sapiens, HEK293, HEK Agonist Activity, parental non-transfected HEK cells
[4] = HEK Agonist Activity section of Table 4 (parental HEK counterscreen)

Row | Compound | Averaged Max % Response (±St. Dev.) (GPR139) | Lipophilic Efficiency (logD) (GPR139; based on logD) | Lipophilic Efficiency (logP) (GPR139; based on logP) | Hill Slope (GPR139; fitted dose-response curve) | Efficiency Ligand (GPR139; ligand efficiency) | EC50 (GPR139; [1]) | Lipophilic Efficiency (logD) (parental HEK cells; HEK Agonist Activity section) | Lipophilic Efficiency (logP) (parental HEK cells; HEK Agonist Activity section) | Lipophilic Efficiency (logD) (parental HEK cells; HEK Agonist Activity) | Lipophilic Efficiency (logP) (parental HEK cells; HEK Agonist Activity) | Averaged Max % Response (±St. Dev.) (parental HEK cells; HEK Agonist Activity section) | EC50 (parental HEK cells; [2]) | Averaged Max % Response (±St. Dev.) (parental HEK cells; HEK Agonist Activity) | EC50 (parental HEK cells; [3]) | other results
1 | CC1CCCC(NC(=O)CN2CCN(Cc3ccc(F)cc3Cl)C2=O)C1C (stereo not shown) [SR-01000125648] | 98.80 ± 20.98% |  |  |  |  |  | 1.67 | 1.67 |  |  | 8.17 ± 5.14% | > 14100 nM |  |  | Efficiency Ligand (GPR139): 0.33; Hill Slope (GPR139): 0.84; Lipophilic Efficiency (logD) (GPR139): 3.13; Lipophilic Efficiency (logP) (GPR139): 3.13; EC50 (GPR139; HEK-GPR139 cells): 490 nM
2 | CC(=O)N1CCSc2cc(S(=O)(=O)NC3CCC(C)CC3)ccc21 (stereo not shown) [SR-01000141798] | 62.31 ± 7.50% |  |  |  |  |  | 2.66 | 2.66 |  |  | 2.60 ± 1.15% | > 14100 nM |  |  | Efficiency Ligand (GPR139): 0.31; Hill Slope (GPR139): 0.65; Lipophilic Efficiency (logD) (GPR139): 3.15; Lipophilic Efficiency (logP) (GPR139): 3.15; EC50 (GPR139; HEK-GPR139 cells): 4600 nM
3 | O=C(CN1C(=O)NC2(CCCc3ccccc32)C1=O)N1CCCCCC1 (stereo not shown) [SR-01000075116] | 81.52 ± 3.66% | 4.72 | 4.72 | 0.99 | 0.37 | 142 nM | 2.72 | 2.72 |  |  | 4.31 ± 1.95% |  |  |  | EC50 (parental HEK cells; [4]): > 14300 nM
4 | Cc1ccc(Br)cc1S(=O)(=O)NCCC(=O)NCCc1sccc1C [SR-01000101329] | 102.96 ± 12.58% | 5.16 | 5.15 | 0.79 | 0.38 |  | 3.17 | 3.16 |  |  | −2.50 ± 6.06% | > 14100 nM |  |  | 
5 | O=C(CSc1ccc2ccccc2c1)NNC(=O)c1ccc(Br)s1 [SR-01000069345] | 114.67 ± 3.82% | 4.37 | 4.37 | 1.18 | 0.49 | 3.7 nM |  |  | 0.77 | 0.77 |  |  | 15.34 ± 2.20% |  | EC50 (parental HEK cells; HEK Agonist Activity, parental non-transfected HEK cells): > 14700 nM
6 | COc1cc(C(=O)NCCn2ccc3ccccc32)cc(OC)c1OC [SR-01000124399] | 147.35 ± 21.79% | 4.50 | 4.50 | 0.70 | 0.39 | 62.9 nM | 2.15 | 2.15 |  |  | −5.54 ± 8.42% | > 14100 nM |  |  | 
7 | Cc1cc(C(=O)NNC(=O)CNC(=O)Cc2cccc3ccccc23)c(C)o1 [SR-01000068718] | 119.00 ± 0.36% | 6.50 | 6.50 | 0.58 | 0.40 | 10.1 nM |  |  | 3.34 | 3.34 |  |  | 20.24 ± 11.96% | > 14900 nM | 
8 | O=C(CN1CCN(Cc2ccccc2Cl)C1=O)NC1CCCCCC1 [SR-01000125460] | 95.59 ± 27.48% | 4.03 | 4.03 | 1.03 | 0.38 | 141 nM | 2.02 | 2.02 |  |  | −2.02 ± 12.81% |  |  |  | EC50 (parental HEK cells; [4]): > 14100 nM
9 | CCn1c(C)nc2cc(C(=O)NNC(=O)Cc3cccc4ccccc34)ccc21 [SR-01000041378] | 94.48 ± 15.59% | 4.29 | 4.29 | 0.61 | 0.35 | 46.1 nM |  |  | 1.79 | 1.79 |  |  | −2.48 ± 2.57% | > 14600 nM | 

Now from value to molecule, other results behind:

Row | Averaged Max % Response (±St. Dev.) (GPR139) | Lipophilic Efficiency (logD) (GPR139; based on logD) | Lipophilic Efficiency (logP) (GPR139; based on logP) | Hill Slope (GPR139; fitted dose-response curve) | Efficiency Ligand (GPR139; ligand efficiency) | EC50 (GPR139; [1]) | Lipophilic Efficiency (logD) (parental HEK cells; HEK Agonist Activity section) | Lipophilic Efficiency (logP) (parental HEK cells; HEK Agonist Activity section) | Lipophilic Efficiency (logD) (parental HEK cells; HEK Agonist Activity) | Lipophilic Efficiency (logP) (parental HEK cells; HEK Agonist Activity) | Compound | Averaged Max % Response (±St. Dev.) (parental HEK cells; HEK Agonist Activity section) | EC50 (parental HEK cells; [2]) | Averaged Max % Response (±St. Dev.) (parental HEK cells; HEK Agonist Activity) | EC50 (parental HEK cells; [3]) | other results
10 | 89.14 ± 2.93% | 3.38 | 3.35 | 0.85 | 0.36 | 197 nM | 1.53 | 1.50 |  |  | COc1ccc(CC(=O)NNC(=O)C(C)Oc2ccc(Cl)cc2Cl)cc1 (stereo not shown) [SR-01000361779] | 9.57 ± 4.06% | > 14100 nM |  |  | 
11 | 113.63 ± 16.89% | 3.06 | 3.06 | 0.65 | 0.40 | 252 nM | 1.32 | 1.32 |  |  | O=C(Cn1ncc2c(Cl)cccc21)NCCc1ccc(Cl)cc1 [SR-01000155030] | 10.75 ± 8.11% | > 14100 nM |  |  | 
12 | 136.02 ± 19.68% | 2.73 | 2.73 |  | 0.39 |  |  |  | −0.133 | −0.133 | O=C(CCc1nc2ccccc2n1-c1ccccc1)NCCc1ccccc1 [SR-01000535824] |  |  | 34.71 ± 16.19% | > 12100 nM | 
13 | 133.92 ± 16.41% | 3.47 | 3.47 | 0.09 | 0.37 | 19.6 nM |  |  | 0.61 | 0.61 | CC(C)C(CC(=O)Cc1cccc2ccccc12)C(=O)Nc1cccc(C#N)c1 (stereo not shown) [SR-05000022531] |  |  | 1.20 ± 11.04% | > 14100 nM | 
14 | 102.69 ± 7.41% | 4.95 | 4.94 | 0.31 | 0.44 | 7.9 nM |  |  | 1.69 | 1.69 | COc1ccccc1OCC(=O)NCCc1ccc2c(c1)CCCN2C [SR-01000911654] |  |  | −5.46 ± 4.05% | > 14100 nM | 
15 | 90.23 ± 7.66% |  |  |  |  |  | 3.19 | 3.19 |  |  | Cc1cc(-c2nnc(NC(=O)CCc3ccccc3)o2)n(C)n1 [SR-01000920602] | −28.12 ± 1.91% | > 14100 nM |  |  | Efficiency Ligand (GPR139): 0.39; Hill Slope (GPR139): 0.91; Lipophilic Efficiency (logD) (GPR139): 4.83; Lipophilic Efficiency (logP) (GPR139): 4.83; EC50 (GPR139; HEK-GPR139 cells): 325 nM
16 | 86.53 ± 11.45% |  |  |  |  |  | 2.52 | 2.48 |  |  | CCC(=O)NNC(=O)C(C)Oc1ccc(Cl)cc1Cl (stereo not shown) [SR-01000316982] | 2.44 ± 4.96% | > 14100 nM |  |  | Efficiency Ligand (GPR139): 0.46; Hill Slope (GPR139): 1.19; Lipophilic Efficiency (logD) (GPR139): 3.90; Lipophilic Efficiency (logP) (GPR139): 3.86; EC50 (GPR139; HEK-GPR139 cells): 580 nM
17 | 81.17 ± 17.61% |  |  |  |  |  | 1.69 | 1.66 |  |  | COc1ccc(CC(=O)NNC(=O)C(C)Oc2ccc(Cl)cc2Cl)cc1OC (stereo not shown) [SR-01000312779] | 13.34 ± 1.65% | > 14100 nM |  |  | Efficiency Ligand (GPR139): 0.30; Hill Slope (GPR139): 1.91; Lipophilic Efficiency (logD) (GPR139): 2.77; Lipophilic Efficiency (logP) (GPR139): 2.74; EC50 (GPR139; HEK-GPR139 cells): 1200 nM
18 | 105.15 ± 8.65% | 5.11 | 5.11 | 0.92 | 0.39 | 15.7 nM |  |  | 2.16 | 2.16 | Cc1c(C(=O)NC(C)(C)CO)cnn1-c1ncc2c(n1)-c1ccccc1CC2 [SR-01000239973] |  |  | −7.52 ± 3.99% | > 14100 nM | 
19 | 108.00 ± 3.42% | 6.43 | 6.38 | 4.63 | 0.35 | 10.3 nM |  |  | 3.29 | 3.24 | O=C(CC(C(=O)N1CCc2ccccc21)n1ccnc1)NCC1COc2ccccc2O1 (stereo not shown) [SR-01000144615] |  |  | −9.40 ± 4.48% | > 14100 nM | 
